Eleven compounds from patent US20250145665A1, “MACROCYCLIC PEPTIDES USEFUL AS MODULATORS OF TNF ALPHA” (Bristol-Myers Squibb Company, priority 2023, published 2025) can be followed below.

Positions of bridges follow the written chain, without caps; N, C: chain ends. Non-standard residues stand in square brackets, D forms with d. Residues, ends and D or L forms follow the SMILES beside them. Bip(4'-COOH) = N[C@@H](Cc1ccc(-c2ccc(C(=O)O)cc2)cc1)C(=O)O; Bip(4'-NHAc) = CC(=O)Nc1ccc(-c2ccc(C[C@H](N)C(=O)O)cc2)cc1; Ala(morpholin-4-yl) = N[C@@H](CN1CCOCC1)C(=O)O; Bip = N[C@@H](Cc1ccc(-c2ccccc2)cc1)C(=O)O; Pro(4S-NH2) = N[C@@H]1CN[C@H](C(=O)O)C1; Val(3-OH) = CC(C)(O)[C@H](N)C(=O)O; h4Pal = N[C@@H](CCc1ccncc1)C(=O)O; 2Pal = N[C@@H](Cc1ccccn1)C(=O)O; Cha = N[C@@H](CC1CCCCC1)C(=O)O; Aze = O=C(O)[C@@H]1CCN1; Sar = CNCC(=O)O Some results are limits rather than exact numbers.

The test deals with TNFα (Homo sapiens, UniProt P01375). The test is described as follows: TNF-Induced HEK-Blue Assay. Type of test: cell-based. The conditions noted are these: HEK-Blue-CD40L cells, NF-kB-driven secreted alkaline phosphatase reporter; TNFα 0.5 ng/ml; 18 h; read-out: TNF induced HEK-Blue assay IC50 value.
Chain of TNFα (P01375 77-233 limits assumed): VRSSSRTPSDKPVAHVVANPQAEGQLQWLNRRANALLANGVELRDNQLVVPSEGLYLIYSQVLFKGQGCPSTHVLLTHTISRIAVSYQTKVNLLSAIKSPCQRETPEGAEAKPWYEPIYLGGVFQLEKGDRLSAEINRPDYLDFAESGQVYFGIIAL
For orientation: IC50 means the concentration needed to halve the response being measured. As to `CC(=O)Nc1ccc(-c2ccc(C[C@@H]3NC(=O)[C@H](Cc4ccc(-c5ccccc5)cc4)NC(=O)[C@H](CN4CCOCC4)NC(=O)CSC[C@@H](C(=O)NCC(N)=O)NC(=O)[C@H](CC(C)C)NC(=O)[C@H](Cc4ccc(O)cc4)NC(=O)[C@H](C(C)C)NC(=O)[C@@H]4CCCN4C(=O)[C@H](C(C)C)NC(=O)[C@@H](CCCNC(=N)N)NC(=O)[C@H](CC(=O)O)NC(=O)[C@@H]4C[C@H](N)CN4C(=O)CN(C)C3=O)cc2)cc1` [Example 184] ({CH2CO}-[Ala(morpholin-4-yl)][Bip][Bip(4'-NHAc)][Sar][Pro(4S-NH2)]D[dR]VPVYLCG-NH2; thioether N-13), the IC50 was less than 50 nM. The result for `CC(=O)Nc1ccc(-c2ccc(C[C@@H]3NC(=O)[C@H](Cc4ccc(-c5ccc(C(=O)O)cc5)cc4)NC(=O)[C@H](CN4CCOCC4)NC(=O)CSC[C@@H](C(=O)NCC(N)=O)NC(=O)[C@H](CC(C)C)NC(=O)[C@H](CCCNC(=N)N)NC(=O)[C@H](C(C)C)NC(=O)[C@@H]4CCN4C(=O)[C@H](C(C)C)NC(=O)[C@@H](CCCNC(=N)N)NC(=O)[C@H](CC(=O)O)NC(=O)[C@H](Cc4ccccn4)NC(=O)CN(C)C3=O)cc2)cc1` [Example 185] ({CH2CO}-[Ala(morpholin-4-yl)][Bip(4'-COOH)][Bip(4'-NHAc)][Sar][2Pal]D[dR]V[Aze]VRLCG-NH2; thioether N-13) reads less than 50 nM; that for `CC(C)C[C@@H]1NC(=O)[C@H](Cc2ccc(O)cc2)NC(=O)[C@H](C(C)C)NC(=O)[C@@H]2CCCN2C(=O)[C@H](C(C)C)NC(=O)[C@@H](CCCNC(=N)N)NC(=O)[C@H](CC(=O)O)NC(=O)[C@H](Cc2ccc(O)cc2)NC(=O)CN(C)C(=O)[C@H](Cc2ccc(-c3ccccc3)cc2)NC(=O)[C@H](Cc2ccc(-c3ccc(C(=O)O)cc3)cc2)NC(=O)[C@H](CCc2ccncc2)NC(=O)CSC[C@@H](C(=O)NCC(N)=O)NC1=O` [Example 186] ({CH2CO}-[h4Pal][Bip(4'-COOH)][Bip][Sar]YD[dR]VPVYLCG-NH2; thioether N-13), 50 to 200 nM; that for `CC(C)C[C@@H]1NC(=O)[C@H](Cc2ccc(O)cc2)NC(=O)[C@H](C(C)C)NC(=O)[C@@H]2CCCN2C(=O)[C@H](C(C)C)NC(=O)[C@@H](CCCNC(=N)N)NC(=O)[C@H](CC(=O)O)NC(=O)[C@H](Cc2ccc(O)cc2)NC(=O)CN(C)C(=O)[C@H](Cc2ccc(-c3ccccc3)cc2)NC(=O)[C@H](Cc2ccc(-c3ccc(C(=O)O)cc3)cc2)NC(=O)[C@H](CC2CCCCC2)NC(=O)CSC[C@@H](C(=O)NCC(N)=O)NC1=O` [Example 187] ({CH2CO}-[Cha][Bip(4'-COOH)][Bip][Sar]YD[dR]VPVYLCG-NH2; thioether N-13), 50 to 200 nM. The result for `CC[C@H](C)[C@@H]1NC(=O)CSC[C@@H](C(=O)NCC(N)=O)NC(=O)[C@H](CC(C)C)NC(=O)[C@H](Cc2ccc(O)cc2)NC(=O)[C@H](C(C)C)NC(=O)[C@@H]2CCCN2C(=O)[C@H](C(C)C)NC(=O)[C@@H](CCCNC(=N)N)NC(=O)[C@H](CC(=O)O)NC(=O)[C@H](Cc2ccc(O)cc2)NC(=O)CN(C)C(=O)[C@H](Cc2ccc(-c3ccccc3)cc2)NC(=O)[C@H](Cc2ccc(-c3ccc(C(=O)O)cc3)cc2)NC1=O` [Example 188] ({CH2CO}-I[Bip(4'-COOH)][Bip][Sar]YD[dR]VPVYLCG-NH2; thioether N-13) reads less than 50 nM. Take `CC(C)C[C@@H]1NC(=O)[C@H](Cc2ccc(O)cc2)NC(=O)[C@H](C(C)C)NC(=O)[C@@H]2CCCN2C(=O)[C@H](C(C)C)NC(=O)[C@@H](CCCNC(=N)N)NC(=O)[C@H](CC(=O)O)NC(=O)[C@H](Cc2ccc(O)cc2)NC(=O)CN(C)C(=O)[C@H](Cc2ccc(-c3ccccc3)cc2)NC(=O)[C@H](Cc2ccc(-c3ccc(C(=O)O)cc3)cc2)NC(=O)[C@H](Cc2c[nH]c3ccccc23)NC(=O)CSC[C@@H](C(=O)NCC(N)=O)NC1=O` [Example 189] ({CH2CO}-W[Bip(4'-COOH)][Bip][Sar]YD[dR]VPVYLCG-NH2; thioether N-13): the IC50 lay in the range of 200 to 2000 nM. `CC(=O)Nc1ccc(-c2ccc(C[C@@H]3NC(=O)[C@H](Cc4ccc(-c5ccc(C(=O)O)cc5)cc4)NC(=O)[C@H](CN4CCOCC4)NC(=O)CSC[C@@H](C(=O)NCC(N)=O)NC(=O)[C@H](CC(C)C)NC(=O)[C@H](Cc4ccccn4)NC(=O)[C@H](C(C)C)NC(=O)[C@@H]4CCN4C(=O)[C@H](C(C)C)NC(=O)[C@@H](CCCNC(=N)N)NC(=O)[C@H](CC(=O)O)NC(=O)[C@H](Cc4ccccn4)NC(=O)CN(C)C3=O)cc2)cc1` [Example 190] ({CH2CO}-[Ala(morpholin-4-yl)][Bip(4'-COOH)][Bip(4'-NHAc)][Sar][2Pal]D[dR]V[Aze]V[2Pal]LCG-NH2; thioether N-13): the half-inhibitory concentration (IC50) lay in the range of 50 to 200 nM.

Consider `CC(=O)Nc1ccc(-c2ccc(C[C@@H]3NC(=O)[C@H](Cc4ccc(-c5ccc(C(=O)O)cc5)cc4)NC(=O)[C@H](CN4CCOCC4)NC(=O)CSC[C@@H](C(=O)NCC(N)=O)NC(=O)[C@H](CC(C)C)NC(=O)[C@H](CCCNC(=N)N)NC(=O)[C@H](C(C)C)NC(=O)[C@@H]4CCCN4C(=O)[C@H](C(C)C)NC(=O)[C@H](CCCNC(=N)N)NC(=O)[C@H](CC(=O)O)NC(=O)[C@H](Cc4ccc(O)cc4)NC(=O)CN(C)C3=O)cc2)cc1` [Example 191] ({CH2CO}-[Ala(morpholin-4-yl)][Bip(4'-COOH)][Bip(4'-NHAc)][Sar]YDRVPVRLCG-NH2; thioether N-13), for which the IC50 is 50 to 200 nM.

`CC(=O)Nc1ccc(-c2ccc(C[C@@H]3NC(=O)[C@H](Cc4ccc(-c5ccccc5)cc4)NC(=O)[C@H](CN4CCOCC4)NC(=O)CSC[C@@H](C(=O)NCC(N)=O)NC(=O)[C@H](CC(C)C)NC(=O)[C@H](CCCNC(=N)N)NC(=O)[C@H](C(C)C)NC(=O)[C@@H]4CCCN4C(=O)[C@H](C(C)C)NC(=O)[C@H](CCCNC(=N)N)NC(=O)[C@H](CC(=O)O)NC(=O)[C@H](Cc4ccc(O)cc4)NC(=O)CNC3=O)cc2)cc1` [Example 192] ({CH2CO}-[Ala(morpholin-4-yl)][Bip][Bip(4'-NHAc)]GYDRVPVRLCG-NH2; thioether N-13): the IC50 fell in the range of 50 to 200 nM. Regarding `CC(=O)Nc1ccc(-c2ccc(C[C@@H]3NC(=O)[C@H](Cc4ccc(-c5ccccc5)cc4)NC(=O)[C@H](C(C)(C)O)NC(=O)CSC[C@@H](C(=O)NCC(N)=O)NC(=O)[C@H](CC(C)C)NC(=O)[C@H](CCCNC(=N)N)NC(=O)[C@H](C(C)C)NC(=O)[C@@H]4CCCN4C(=O)[C@H](C(C)C)NC(=O)[C@H](CCCNC(=N)N)NC(=O)[C@H](CC(=O)O)NC(=O)[C@H](Cc4ccc(O)cc4)NC(=O)CN(C)C3=O)cc2)cc1` [Example 193] ({CH2CO}-[Val(3-OH)][Bip][Bip(4'-NHAc)][Sar]YDRVPVRLCG-NH2; thioether N-13), the concentration for half-maximal inhibition (IC50) was 50 to 200 nM. As to `CC(=O)Nc1ccc(-c2ccc(C[C@@H]3NC(=O)[C@H](Cc4ccc(-c5ccccc5)cc4)NC(=O)[C@H](C(C)(C)O)NC(=O)CSC[C@@H](C(=O)NCC(N)=O)NC(=O)[C@H](CC(C)C)NC(=O)[C@H](Cc4ccc(O)cc4)NC(=O)[C@H](C(C)C)NC(=O)[C@@H]4CCCN4C(=O)[C@H](C(C)C)NC(=O)[C@H](CCCNC(=N)N)NC(=O)[C@H](CC(=O)O)NC(=O)[C@@H]4CCCN4C(=O)CN(C)C3=O)cc2)cc1` [Example 194] ({CH2CO}-[Val(3-OH)][Bip][Bip(4'-NHAc)][Sar]PDRVPVYLCG-NH2; thioether N-13), the IC50 lay within 50 to 200 nM.
